Where “and” joins values, the source holds several entries; their conditions need not be identical. Equal values may be shown once. Read-outs that look alike come from different tables or passages of the source.
How the values were obtained:
Human Top1 (HTop1) = biological target: T1, Human Top1 (HTop1) (Homo sapiens, UniProt P11387); assay: Plasmid DNA relaxation assay, HTop1; type: biochemical; conditions: averages of three experiments, read-out: HTop1 inhibition (EC50)
T1 construct: made in house; host or cells: Sf-9 insect cells infected with recombinant baculovirus (gift from Prof. J. J. Champoux)
T1 sequence (P11387 1-765): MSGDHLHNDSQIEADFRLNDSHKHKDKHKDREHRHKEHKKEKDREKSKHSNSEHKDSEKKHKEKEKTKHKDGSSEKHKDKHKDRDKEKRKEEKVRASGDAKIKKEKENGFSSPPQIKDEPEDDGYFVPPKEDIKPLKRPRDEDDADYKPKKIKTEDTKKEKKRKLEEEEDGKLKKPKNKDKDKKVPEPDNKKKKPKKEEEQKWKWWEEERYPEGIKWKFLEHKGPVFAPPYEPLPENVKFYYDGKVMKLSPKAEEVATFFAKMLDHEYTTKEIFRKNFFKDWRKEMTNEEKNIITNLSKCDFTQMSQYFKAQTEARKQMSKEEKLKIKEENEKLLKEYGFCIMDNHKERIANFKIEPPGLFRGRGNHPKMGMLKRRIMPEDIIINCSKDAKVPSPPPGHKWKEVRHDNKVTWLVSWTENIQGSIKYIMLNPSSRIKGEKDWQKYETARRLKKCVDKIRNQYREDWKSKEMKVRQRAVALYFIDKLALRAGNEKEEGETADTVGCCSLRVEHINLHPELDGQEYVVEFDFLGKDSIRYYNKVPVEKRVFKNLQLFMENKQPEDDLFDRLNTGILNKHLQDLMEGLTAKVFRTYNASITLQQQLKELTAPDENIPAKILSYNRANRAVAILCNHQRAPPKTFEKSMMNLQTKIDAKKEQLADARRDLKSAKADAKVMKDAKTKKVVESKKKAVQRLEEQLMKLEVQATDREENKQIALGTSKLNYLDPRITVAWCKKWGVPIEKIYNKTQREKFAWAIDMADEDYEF
Method: (§1) To investigate the inhibitory effect of our library compounds on the DNA relaxation activity of the recombinant Human and Leishmania topoisomerase 1 (Table 2), assays were performed involving supercoiled plasmid DNA, the enzymes (HTop1 and LdTop1) and our molecules. The enzymes were purified by the standard literature procedure.
(§2) The type I DNA topoisomerase are assayed by decreased mobility of the relaxed isomers of supercoiled pBS (SK^+) [pBlue-script (SK^+)] DNA in agarose gel. The relaxation assay was carried out as described previously with LdTop1B and HTop I, diluted in the relaxation buffer (25 mM Tris–HCl, pH 7.5, 5% glycerol, 0.5 mM DTT, 10 mM MgCl2, 50 mM KCl, […] and […] BSA) and supercoiled plasmid pBS (SK^+) DNA (85–95% were negatively supercoiled, with remainder being nicked circles)[9][28][29]. The reconstituted enzyme LdTop1B was assayed at 50 mM KCl concentration as described before. For all kinetic studies, the reaction mixtures containing the buffer and DNA were heated to 37 °C before addition of the enzymes. The reactions were rapidly quenched using stop solution and kept on ice. The gels were stained with ethidium bromide (EtBr) ([…]) and the amount of supercoiled monomer DNA band fluorescence were quantified by integration using Gel Doc 2000 under UV illumination (Bio-Rad Quantity One Software), as described previously.
The wild-type HTop1 (91 kDa) was purified from Sf-9 insect cells infected with the recombinant baculovirus (a kind gift from Prof. J. J. Champoux). Approximately, 1 * 10^9 Sf-9 cells were infected with the recombinant virus, and cells were harvested after 48-h of infection. The cells were lysed and enzyme was purified as described. Briefly, at 48 h post-infection, approximately 3 * 10^9 Sf-9 cells were harvested by centrifugation for 5 min at 400 * g. The cells were resuspended in 1 liter of ice-cold phosphate-buffered saline and centrifuged for 5 min at 400 * g. The nuclei were washed twice in 80 ml of lysis buffer minus Triton X-100 and resuspended in 40 ml of resuspension buffer (50 mM KCl, 10 mM Tris-Cl, pH 7.5, 2 mM MgCl2, 25 mM DTT, 0.4 mg/ml phenylmethylsulfonyl fluoride, 0.12 mg/ml aprotinin). The nuclear extract was stirred for 5 min at ~200 rpm. With continued stirring, 50 ml of polyethylene glycol (PEG) buffer (18% PEG 8000, 1 M NaCl, 10% glycerol) was added dropwise in order to precipitate the DNA. The PEG precipitate was pelleted by centrifugation and the resulting PEG supernatant was dialyzed against 4 liters of potassium phosphate buffer. The dialyzed PEG supernatant passed over a 10-ml bed volume of phosphocellulose (Whatman P11) equilibrated with PPB. The HTop1 flowed through the PS column and then passed over a Mono Q column followed by loaded onto a Mono S column. The Mono S column was eluted with a 25-ml 50–200 mM KPO4, pH 7.4, gradient. […] The peak Mono S fractions were pooled, concentrated with an Amicon ultrafiltration cell, dialyzed into storage buffer (50% glycerol, 10 mM Tris-hydrochloride, pH 7.5, 1 mM DTT, 1 mM EDTA), and stored at −20 °C.

[1] = biological target: Leishmania donovani Topoisomerase 1 (LdTop1) (Leishmania donovani, UniProt A0A3Q8IHS4+Q8WQM6); assay: Plasmid DNA relaxation assay, LdTop1 (simultaneous incubation); type: biochemical
Leishmania donovani Topoisomerase 1 (LdTop1), sequence (Q8WQM6 entry or part of it): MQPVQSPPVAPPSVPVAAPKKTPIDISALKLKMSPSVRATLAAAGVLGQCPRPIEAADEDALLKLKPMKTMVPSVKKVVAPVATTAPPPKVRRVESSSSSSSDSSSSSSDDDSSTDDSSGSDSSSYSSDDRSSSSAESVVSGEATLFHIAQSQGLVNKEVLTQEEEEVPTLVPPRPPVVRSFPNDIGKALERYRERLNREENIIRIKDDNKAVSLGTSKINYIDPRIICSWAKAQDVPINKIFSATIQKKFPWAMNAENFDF
Leishmania donovani Topoisomerase 1 (LdTop1), sequence (A0A3Q8IHS4 entry or part of it): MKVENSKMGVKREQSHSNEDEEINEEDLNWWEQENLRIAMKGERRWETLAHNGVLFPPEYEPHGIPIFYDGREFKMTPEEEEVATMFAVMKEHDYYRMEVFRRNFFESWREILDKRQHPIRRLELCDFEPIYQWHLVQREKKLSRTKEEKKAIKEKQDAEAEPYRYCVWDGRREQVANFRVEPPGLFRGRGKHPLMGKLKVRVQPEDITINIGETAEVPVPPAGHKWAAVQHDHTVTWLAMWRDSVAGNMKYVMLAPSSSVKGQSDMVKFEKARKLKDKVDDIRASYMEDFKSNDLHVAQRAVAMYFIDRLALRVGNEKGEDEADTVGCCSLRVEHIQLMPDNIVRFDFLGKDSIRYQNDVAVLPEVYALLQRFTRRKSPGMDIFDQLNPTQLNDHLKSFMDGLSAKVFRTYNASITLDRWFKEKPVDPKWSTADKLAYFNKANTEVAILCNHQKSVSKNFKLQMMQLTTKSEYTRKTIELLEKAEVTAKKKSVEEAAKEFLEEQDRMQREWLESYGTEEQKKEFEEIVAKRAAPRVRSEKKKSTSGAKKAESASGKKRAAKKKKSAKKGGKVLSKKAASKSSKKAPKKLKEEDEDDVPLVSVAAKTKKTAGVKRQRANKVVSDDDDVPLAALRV
Method: as §1
All the experiments were conducted thrice and representative data from once set of them are expressed as mean ± SD.
as §2
Cells harvested from 1 litre of culture were separately lysed by lysozyme/sonication, and the proteins were purified through Ni-NTA (Ni^2+-nitriloacetate-agarose column (Qiagen, Hilden, Germany) followed by a phospho-cellulose column (P11 cellulose; Whatman, Maidstone Kent, UK) as described previously. Finally, the purified proteins LdTOP1L and LdTOP1S were stored at −70 °C. The concentrations of each protein were quantified by using Bradford Reagent (PIERCE, Thermo Fisher Scientific Inc., Rockford, USA). Purified LdTOP1L was mixed with purified LdTOP1S at a molar ratio of 1:1 to a total protein concentration of 0.5 mg/ml in reconstitution buffer [50 mM potassium phosphate, pH 7.5, 0.5 mM DTT, 1 mM EDTA, 0.1 mM PMSF and 10% (v/v) glycerol]. The mixture was dialyzed overnight at 4 °C and dialyzed fractions were used for plasmid relaxation activity.

[2] = LdTop1 relaxation, 12.5 uM, read-out: % inhibition, mean data
[3] = LdTop1 relaxation, 25 uM, read-out: % inhibition, mean data
[4] = LdTop1 relaxation, 50 uM, read-out: % inhibition, mean data
[5] = LdTop1 relaxation, 100 uM, read-out: % inhibition, mean data
[6] = plasmid DNA relaxation, averages of three experiments, read-out: LDTop1 inhibition (EC50)
[7] = read-out: % inhibition (CPT 100%), data 1, LdTop1 relaxation, 12.5 uM
[8] = read-out: % inhibition (CPT 100%), data 1, LdTop1 relaxation, 25 uM
[9] = read-out: % inhibition (CPT 100%), data 1, LdTop1 relaxation, 50 uM
[10] = read-out: % inhibition (CPT 100%), data 1, LdTop1 relaxation, 100 uM
[11] = read-out: % inhibition (CPT 100%), data 2, LdTop1 relaxation, 12.5 uM
[12] = read-out: % inhibition (CPT 100%), data 2, LdTop1 relaxation, 25 uM
[13] = read-out: % inhibition (CPT 100%), data 2, LdTop1 relaxation, 50 uM
[14] = read-out: % inhibition (CPT 100%), data 2, LdTop1 relaxation, 100 uM
[15] = supplement sheet Ld Top 1 data, concentrations in uM, read-out: EC50 (LdTop1, supplement sheet)

| Compound | EC50 (Human Top1 (HTop1)) | inhibition at 12.5 µM [1, 2] | inhibition at 25 µM [1, 3] | inhibition at 50 µM [1, 4] | inhibition at 100 µM [1, 5] | LdTop1 inhibitory activity ([1]; plasmid DNA relaxation) | EC50 [1, 6] | inhibition at 12.5 µM [1, 7] | inhibition at 25 µM [1, 8] | inhibition at 50 µM [1, 9] | inhibition at 100 µM [1, 10] | inhibition at 12.5 µM [1, 11] | inhibition at 25 µM [1, 12] | inhibition at 50 µM [1, 13] | inhibition at 100 µM [1, 14] | EC50 [1, 15] | further results |
| --- | --- | --- | --- | --- | --- | --- | --- | --- | --- | --- | --- | --- | --- | --- | --- | --- | --- |
| COc1ccc(/C=C2\OC(=O)c3c2cc(C)[nH]c3=O)c(C)c1C [Compound 2] | > 100 µM | 50.1% | 65.2% | 85.1% | 99.5% | considerable activity | 10 µM and 10.1 µM | 50.1% | 66.8% | 85.8% | 100% | 50.1% | 63.7% | 84.4% | 98.9% | 10.2 µM |  |
| Cc1cc2c(c(=O)[nH]1)C(=O)O/C2=C\c1ccccc1C(F)(F)F [Compound 3] | > 100 µM | 52.5% | 67.3% | 87.5% | 91.3% | considerable activity | 9.06 ± 1.77 µM | 51.2% | 68.8% | 88.7% | 93.7% | 53.7% | 65.8% | 86.2% | 88.9% | 9.06 µM |  |
| Cc1cc2c(c(=O)[nH]1)C(=O)O/C2=C\c1c[nH]c2ccccc12 [Compound 5] | > 100 µM |  |  |  |  | no inhibitory activity at all | > 100 µM |  |  |  |  |  |  |  |  |  |  |
| Cc1cc2c(c(=O)[nH]1)C(=O)O/C2=C\c1ccc2c(c1)OCO2 [Compound 6] | > 100 µM |  |  |  |  | complete loss of activity | > 100 µM |  |  |  |  |  |  |  |  |  |  |
| Cc1cc2c(c(=O)[nH]1)C(=O)O/C2=C\c1ccc(F)c(F)c1 [Compound 8] | > 100 µM |  |  |  |  | complete loss of activity | > 100 µM |  |  |  |  |  |  |  |  |  |  |
| Cc1cc2c(c(=O)[nH]1)C(=O)O/C2=C\c1cccc(Br)c1 [Compound 9] | > 100 µM | 52.2% | 68.2% | 88.4% | 93% | considerable activity | 7.51 ± 1.02 µM | 52.9% | 69.6% | 89.7% | 95.5% | 51.4% | 66.8% | 87.2% | 90.5% | 7.51 µM |  |
| Cc1cc2c(c(=O)[nH]1)C(=O)O/C2=C\c1ccc(Br)cc1 [Compound 10] | > 100 µM |  |  |  |  |  | > 100 µM |  |  |  |  |  |  |  |  |  |  |
| Cc1cc2c(c(=O)[nH]1)C(=O)O/C2=C\c1cccc2ccccc12 [Compound 11] | > 100 µM |  |  |  |  | no inhibitory activity at all | > 100 µM |  |  |  |  |  |  |  |  |  |  |
| COc1cccc(/C=C2\OC(=O)c3c2cc(C)[nH]c3=O)c1OC [Compound 12] | > 100 µM |  |  |  |  | inactive | > 100 µM |  |  |  |  |  |  |  |  |  |  |
| Cc1cc2c(c(=O)[nH]1)C(=O)O/C2=C\c1ccccc1 [Compound 13] | > 100 µM |  |  |  |  |  | > 100 µM |  |  |  |  |  |  |  |  |  |  |
| Cc1cc2c(c(=O)[nH]1)C(=O)O/C2=C\c1cccc(Cl)c1 [Compound 14] | > 100 µM | 30.6% | 48.1% | 61.5% | 87.2% | considerable activity |  | 32% | 46.9% | 58.6% | 88.2% | 29.1% | 49.4% | 64.3% | 86.2% | 35.6 µM | % inhibition (CPT 100%), data 1 ([1]; LdTop1 relaxation, 12.5 uM): 32.026%; % inhibition (CPT 100%), data 1 ([1]; LdTop1 relaxation, 25 uM): 46.8807%; % inhibition, mean data ([1]; LdTop1 relaxation, 50 uM): 61.4846%; % inhibition (CPT 100%), data 1 ([1]; LdTop1 relaxation, 100 uM): 88.2434%; % inhibition (CPT 100%), data 2 ([1]; LdTop1 relaxation, 100 uM): 86.2086%; % inhibition, mean data ([1]; LdTop1 relaxation, 100 uM): 87.226% |
| Cc1cc2c(c(=O)[nH]1)C(=O)O/C2=C\c1cccc(I)c1 [Compound 15] | > 100 µM | 42.1% | 55.3% | 75.2% | 91.7% | considerable activity | 17.4 ± 1.86 µM | 41.1% | 53.2% | 76.2% | 93% | 43.1% | 57.3% | 74.3% | 90.5% | 17.4 µM | % inhibition (CPT 100%), data 2 ([1]; LdTop1 relaxation, 50 uM): 74.2517% |
| CC/C=C1\OC(=O)c2c1cc(C)[nH]c2=O [Compound 16] | > 100 µM |  |  |  |  | no inhibitory activity at all | > 100 µM |  |  |  |  |  |  |  |  |  |  |
| Cc1cc2c(c(=O)[nH]1)C(=O)O/C2=C\c1ccc(Cl)cc1 [Compound 17] | > 100 µM |  |  |  |  |  | > 100 µM |  |  |  |  |  |  |  |  |  |  |
| Cc1cc2c(c(=O)[nH]1)C(=O)O/C2=C\c1ccc(I)cc1 [Compound 18] | > 100 µM |  |  |  |  |  | > 100 µM |  |  |  |  |  |  |  |  |  |  |
| COc1ccc(/C=C2\OC(=O)c3c2cc(C)[nH]c3=O)cc1 [Compound 19] | > 100 µM |  |  |  |  |  | > 100 µM |  |  |  |  |  |  |  |  |  |  |

Reference: publication PMC4879574, “Identification of Leishmania donovani Topoisomerase 1 inhibitors via intuitive scaffold hopping and bioisosteric modification of known Top 1 inhibitors” (Scientific Reports, 2016)
